Columns and labels:
socially isolated mice [1] = test: Forced swim test after social isolation (depressive-like behaviour); assay type: in vivo; conditions: forced swim day 36 vs pre-test day 21, minutes 3 to 6; daily s.c. for 2 weeks: carpipramine 5 mg/kg, paroxetine 1 mg/kg, olanzapine 0.3 mg/kg
Protocol: The mice were socially isolated for a period of 3 weeks in individual cages, with a 12-hour light/dark cycle. They had access to food and water at libitum. On day 21, a pre-test was performed. Cylindrical tanks were filled with water (approximately 25° C.) to a depth that prevents mice from touching the bottom. Each mouse was placed in a water-filled cylinder for 6 minutes. If the mouse was swimming or struggling after 6 minutes, it was gently submerged, so that it would struggle under the surface for up to 20 seconds. After this time elapsed, the mouse was removed from the container and placed in a transient drying cage with a heat lamp above it and a heat pad under it. The mice were closely and continuously monitored while recovering in this cage. […] The test was performed on day 36. Mice were placed again in water-filled cylinders for 6 minutes, and then moved to a drying cage. The behaviour of mice was coded over the minutes 3 to 6 of each test, in 3 categories: immobile, struggling and swimming. The time associated with each type of behaviour was recorded. A reduction in immobility time is considered predictive of antidepressant properties.

[2] = test system: rats subjected to psychosocial stress; test: Context memory test after predator exposure and housing instability; assay type: in vivo; conditions: daily i.p. 21 days: carpipramine 5, sertraline 5, amitriptyline 2, quetiapine 10 mg/kg, 5 min in chamber
Protocol: (§1) An experiment was conducted to assess the effects of carpipramine, sertraline, amitriptyline and quetiapine in rates subjected to psychosocial stress (predator exposure and housing instability) against PTSD-like behaviours, based on a protocol adapted from Zoladz et al (2012).
(§2) Adult male Sprague-Dawley rats were used in all experiments. Fifty (50) rats were pair-housed on a 12-h light/dark schedule in cages with free access to food and water.
(§3) Following a 1-week acclimation phase, they were given two 1-h cat exposures, separated by 10 days, in conjunction with daily social stress in the form of randomized housing. During each of the two cat exposures, rats were placed in a perforated wedge-shaped Plexiglas enclosure. The rats, still immobilized within the Plexiglas enclosure, were taken to the cat housing room where they were placed in a metal cage with an adult female cat for 1 hour. The Plexiglas enclosure prevented any physical contact between the cat and rats, but enabled the rats to be exposed to all non-tactile sensory stimuli associated with the cat. The two cat exposures were separated by 10 days, with the first exposure taking place during the light cycle, and the second exposure taking place during the dark cycle. Beginning on the day of the first cat exposure, rats were exposed to unstable housing conditions for the next 31 days. They were housed two rats per cage, with their cohort pair combination changed on a daily basis during the entire 31-day stress period.
(§4) The rats were randomly assigned to 5 groups of 10, treated with carpipramine, sertraline, amitriptyline, quetiapine and saline. The treatments were administered as daily intraperitoneal injections over 21 days, starting from the day following the second cat exposure. Daily doses were as following: • Carpipramine: 5 mg/kg • Sertraline: 5 mg/kg • Amitriptyline: 2 mg/kg • Quetiapine: 10 mg/kg
(§5) Since a major component of PTSD is the persistent memory of a traumatic experience, a method with which to measure a rat's memory for the cat exposure experiences was used. Thus, rats were given a predator-based form of fear conditioning. The rats were placed in a chamber for 3 minutes immediately prior to each of the two cat exposures. The chamber consisted of two aluminium sides, an aluminium ceiling and clear Plexiglas on the front and back walls and speaker on one wall. A 74 dB, 2500 Hz tone was presented during the last 30 seconds of each chamber exposure. Three weeks following the second cat exposure, the rats were tested for their conditioned fear memory by assessing their freezing response (degree of immobility) when they were returned to the chamber and exposed to the tone. […] For the cue memory test, the percentage of immobile time was measured during the last 3 minutes (i.e. during the tone).

[3] = test system: rats subjected to psychosocial stress; test: Cue memory test after predator exposure and housing instability; assay type: in vivo; conditions: daily i.p. 21 days: carpipramine 5, sertraline 5, amitriptyline 2, quetiapine 10 mg/kg, last 3 minutes (tone)
Protocol: as §1, §2, §3, §4, §5

[4] = test system: rats subjected to psychosocial stress; test: Elevated plus maze (EPM) after predator exposure and housing instability; assay type: in vivo; conditions: daily i.p. 21 days: carpipramine 5, sertraline 5, amitriptyline 2, quetiapine 10 mg/kg, 5 min on EPM
Protocol: as §1, §2, §3, §4
Twenty-four hours after fear conditioning memory testing, the rats were placed on an elevated plus maze (EPM) for 5 minutes. The EPM is a routine test of anxiety in rodents and consists of two open arms and two closed arms of same size (11 cm by 50 cm) that intersect each other to form the shape of a plus sign. At the beginning of each trial, the rats were placed in the intersection area of the EPM, facing one of the open arms. The primary dependent measures of interest were the amount of time rats spent in the open arms and their overall ambulations.

PTSD patients = test: Clinical case reports of patients with PTSD; assay type: in vivo, human
Excerpt: A person was referred to a psychiatrist by […] general practitioner as they suffered from anxiety, sleep problems and nightmares. […] They were on leave from their position as a teacher. The subject was diagnosed with PTSD and a cognitive behavioural therapy was initiated.
A patient was followed by a psychiatrist due to depression symptoms, including sadness, feeling of hopelessness, apathy and anxiety. […] Fluoxetine was stopped after 6 months. About one year later, the depression symptoms recurred, alongside with auditory hallucinations. The patient was then. […] Three months later, fluoxetine was reintroduced alongside with risperidone. The patient's mood improved, but they still suffered from anxiety and auditory hallucinations. After 6 weeks with the combination of risperidone and fluoxetine, risperidone was replaced by carpipramine (150 mg/day).
A veteran presented to a psychiatrist with major depressive disorder (sadness, irritability, poor concentration, suicidal thoughts). […] New symptoms emerged, including nightmares and anxiety. […] Three months later, the patient relapsed, and was experiencing anxiety symptoms, nightmares and mildly depressed mood. The relapse was treated with carpipramine (initiated at 200 mg/day), which led to remission after 4 weeks of treatment. The patient's condition was stable for about 3 years. The symptoms (anxiety, nightmares, moderately depressed mood) reappeared after that time, together with hallucinations and flashbacks of combat. The diagnostic of PTSD was then established. Carpipramine (200 mg/day) was prescribed again, following the previous experience. The patient entered remission after 3 weeks of treatment.

DA receptors = conditions: rat striatum in vitro; order of potency Y-516 > clocapramine > carpipramine; cited from earlier work
alpha-1 adrenoreceptors = conditions: cited from earlier work
socially isolated mice [5] = test: Contextual fear conditioning and extinction (freezing) in socially isolated mice; assay type: in vivo; conditions: for Change in duration of freezing, mean: carpipramine 10 mg/kg s.c., change from day 1
Excerpt: Socially isolated mice express a decrease in corticolimbic allopregnanolone levels that is associated with an enhancement of contextual fear responses and impaired fear extinction. Social isolation can be seen as a prolonged stress that is often associated with a precipitating traumatic event, which leads to maladaptive post-stress adaptations and emergence of PTSD in patients. Thus, social isolation is considered to offer a suitable model to study vulnerability to PTSD.
Ten (10) male Swiss-Webster mice were socially isolated for a period of 4 weeks, in individual cages, according to a protocol proposed by Pinna et al.
Day 0—Training Test. During the training, mice were placed into the training chamber and allowed to explore it for 2 min. After this time, they received a conditioned stimulus (acoustic tone, 30 seconds, 85 dB) co-terminated with an unconditioned stimulus (electric foot shock, 2 s, 0.5 mA). This was repeated three times every 2 min. After the last stimuli, mice were allowed to explore the context for an additional minute before removal from the training chamber (total of 8 min).
Day 1—Contextual Test. Twenty-four hours after training, the mice were placed in the contextual cage, and freezing behavior was measured for 5 min without tone or foot shock presentation. Freezing was defined by the absence of any movement except for those related to respiration while the animal was in a stereotypical crouching posture. Freezing time in a index of fear response.
Days 2-5—Extinction Test. For contextual extinction experiments, mice were placed in the contextual cage for periods of 5 min over 4 consecutive days starting 24 h after the contextual test, and freezing behavior was measured.
After the contextual test, 5 mice received a dose of 10 mg/kg of carpipramine subcutaneously. Injections were repeated on days 2 to 4.

serotonin uptake = conditions: studies on metabolic fate and serotonin levels in the brain; cited from earlier work
[6] = Example 6: veteran, sertraline first, switched to venlafaxine, olanzapine subsequently added
[7] = Example 5: patient, fluoxetine as initial treatment, risperidone with psychological therapy

SMILES: Fc1ccc([C@@H]2CCNC[C@H]2COc2ccc3c(c2)OCO3)cc1 [Paroxetine]
- Mean change in immobility time compared to pre-test (socially isolated mice [1]): -82.2 s

SMILES: OCCOCCN1CCN(C2=Nc3ccccc3Sc3ccccc32)CC1 [Quetiapine]
- Context memory % immobility time, mean [2]: 53.4%
- Cue memory (during tone) % immobility time, mean [3]: 39.3%
- EPM-Open arm exploration % time in open arm, mean [4]: 28.7%

SMILES: CN(C)CCC=C1c2ccccc2CCc2ccccc21 [Amitriptyline]
- Context memory % immobility time, mean [2]: 64.5%
- Cue memory (during tone) % immobility time, mean [3]: 42.7%
- EPM-Open arm exploration % time in open arm, mean [4]: 20.6%

SMILES: CN[C@H]1CC[C@@H](c2ccc(Cl)c(Cl)c2)c2ccccc21 [Sertraline]
- Context memory % immobility time, mean [2]: 37.1%
- Cue memory (during tone) % immobility time, mean [3]: 25.7%
- EPM-Open arm exploration % time in open arm, mean [4]: 32.5%
- clinical outcome of earlier treatments (PTSD patients; [6]): no improvement

SMILES: CNCCC(Oc1ccc(C(F)(F)F)cc1)c1ccccc1 (stereo not drawn) [fluoxetine]
- clinical outcome of earlier treatments (PTSD patients; [7]): improvement in most symptoms, but anxiety persisted

SMILES: COc1ccc(C(CN(C)C)C2(O)CCCCC2)cc1 (stereo not drawn) [venlafaxine]
- clinical outcome of earlier treatments (PTSD patients; [6]): some improvement, but severe symptoms persisted

SMILES: NC(=O)C1(N2CCCCC2)CCN(CCCN2c3ccccc3CCc3ccc(Cl)cc32)CC1 [clocapramine]
- affinity for DA receptors (DA receptors): high affinity

SMILES: CN(C)C(=O)N[C@H]1CC[C@H](CCN2CCN(c3cccc(Cl)c3Cl)CC2)CC1 [Cariprazine]
- affinity for alpha-1 adrenoreceptors (alpha-1 adrenoreceptors): low affinity

SMILES: NC(=O)C1(N2CCCCC2)CCN(CCCN2c3ccccc3CCc3ccccc32)CC1 [Carpipramine]
- mean duration of freezing (socially isolated mice [5]; day 1 contextual test, treated group before first injection (carpipramine 10 mg/kg s.c. given after the test)): 117 s
- Change in duration of freezing, mean (socially isolated mice [5]; day 2): -76 s
- Change in duration of freezing, mean (socially isolated mice [5]; day 3): -93 s
- Change in duration of freezing, mean (socially isolated mice [5]; day 4): -98 s
- Change in duration of freezing, mean (socially isolated mice [5]; day 5): -99 s
- duration of freezing decreased to (socially isolated mice [5]; treated group after extinction tests, carpipramine 10 mg/kg s.c. day 1 and days 2 to 4, p<0.01 vs control): 18 s
- Mean change in immobility time compared to pre-test (socially isolated mice [1]): -104.3 s
- Context memory % immobility time, mean [2]: 22.3%
- Cue memory (during tone) % immobility time, mean [3]: 14.6%
- EPM-Open arm exploration % time in open arm, mean [4]: 42.1%
- clinical outcome of PTSD symptoms (PTSD patients; Example 4: person, oral carpipramine 100 mg/daily with cognitive behavioural therapy): All PTSD symptoms improved markedly
- clinical outcome (PTSD patients; Example 5: patient, carpipramine 150 mg/day replacing risperidone, alongside fluoxetine): entered in remission two weeks later
- time to remission (PTSD patients; Example 6: first relapse, carpipramine initiated at 200 mg/day): 4 weeks
- time to remission (PTSD patients; Example 6: recurrence about 3 years later, PTSD diagnosed, carpipramine 200 mg/day): 3 weeks
- affinity for DA receptors (DA receptors): high affinity
- effect on serotonin uptake (serotonin uptake): did not modify serotonin uptake

SMILES: Cc1cc2c(s1)Nc1ccccc1N=C2N1CCN(C)CC1 [Olanzapine]
- Mean change in immobility time compared to pre-test (socially isolated mice [1]): +19.5 seconds

SMILES: Cc1nc2n(c(=O)c1CCN1CCC(c3noc4cc(F)ccc34)CC1)CCCC2 [risperidone]
- clinical outcome of earlier treatments (PTSD patients; [7]): modest improvement
